Source: patent publication US20140107109A1, “AMINO-DIHYDROTHIAZINE AND AMINO-DIOXIDO DIHYDROTHIAZINE COMPOUNDS AS BETA-SECRETASE ANTAGONISTS AND METHODS OF USE” (Amgen Inc., priority 2012, published 2014)
Read-outs that look alike come from different tables or passages of the source.

Legend:
[1] = test system: Aβ40 in conditioned medium of cells stably expressing Amyloid Precursor Protein (APP); assay: In vitro BACE cell-based assay (HEK cell assay), Aβ40 sandwich ELISA; conditions: Homo sapiens, HEK293
Experimental: In Vitro BACE Cell-Based Assay
The cell-based assay measures inhibition or reduction of Aβ40 in conditioned medium of test compound treated cells expressing amyloid precursor protein.
Cells stably expressing Amyloid Precursor Protein (APP) were plated at a density of 40K cells/well in 96 well plates (Costar). The cells were cultivated for 24 hours at 37C. and 5% CO2 in DMEM supplemented with 10% FBS. The test compounds were then added to cells in 10-point dose response concentrations with the starting concentration being either 100 μM or 10 μM. The compounds were diluted from stock solutions in DMSO and the final DMSO concentration of the test compounds on cells was 0.1%. After 24 h of incubation with the test compounds the supernatant conditioned media was collected and the Aβ 40 levels were determined using a sandwich ELISA. The IC50 of the compound was calculated from the percent of control or percent inhibition of Aβ 40 as a function of the concentration of the test compound.
The sandwich ELISA to detect Aβ 40 was performed in 96 well microtiter plates, which were pre-treated with goat anti-rabbit IgG (Pierce). The capture and detecting antibody pair that were used to detect Aβ 40 from cell supernatants were affinity purified pAb40 (Biosource) and biotinylated 6E10 (Signet Labs Inc.), respectively. The optimal concentration for the pAb40 antibody was 3 μg/ml in Superblock/TBS (Pierce) that was supplemented with 0.05% Tween 20 (Sigma). Optimal concentration for the detection antibody 6E10-biotinylated was 0.5 μg/ml in Superblock/TBS (Pierce) that had been supplemented with 2% normal goat serum and 2% normal mouse serum.
Cellular supernatants were incubated with the capture antibody for 3 h at 4° C., followed by 3 wash steps in TBS-tween (0.05%). The detecting antibody incubation was for 2 h at 4° C., again followed by the wash steps as described previously. The final readout of the ELISA is Time-Resolved Fluorescence (counts per minute) using Delfia reagents Streptavidin-Europium and Enhancement solutions (Perkin Elmer) and the Victor 2 multilabel counter (Perkin Elmer).

Cathepsin D (Cat D) = target: T1, Cathepsin D (Cat D) (Homo sapiens, UniProt P07339); assay: In vitro enzymatic Cathepsin D (Cat D) FRET assay; assay type: biochemical; conditions: read-out: CatD IC50
T1 construct: Recombinant Cat D was expressed in CHO cells; made in house; host or cells: CHO cells
Experimental: In Vitro Enzymatic Cathepsin D (Cat D) FRET (Fluorescence Resonance Energy Transfer) Assay Recombinant Cat D was expressed in CHO cells. […] The Cat D enzyme (9 nM) is pre-incubated for one hour with inhibitors, typically in about 1 uL of DMSO according to a serial dilution, is added thereto. […] The FRET assay is terminated with by addition of Tris buffer, which raises the pH to neutrality, and the fluorescence is determined. The FRET substrate is a peptide with commercially available fluorophore and quencher, on opposite sides of the BACE cleavage site. The Cat D substrate peptide sequence is based on sequence #1 of Table 1 from Gulnik et al. […] Alternatively, a Cat D assay may also be run according to the procedure described in the article, Characterization of new fluorgenic substrates for the rapid and sensitive assay of cathepsin E and cathepsin D, J. Biochem., 125:1137, 1999. In addition, the cathepsin D and cathepsin E assays are described in PCT publication WO2011069934. This WIPO publication describes BACE inhibitor compounds having an amide linker connecting two aromatic groups with extremely poor cathepsin D and/or cathepsin E inhibitory activity (see Table 2). Where available, the in-vitro Cat D FRET assay data for each of the Examples, conducted by the first procedure, is provided.

[2] = target: Beta Secretase enzyme (BACE1) (Homo sapiens, UniProt P56817); assay: In vitro enzymatic BACE FRET assay; assay type: biochemical; conditions: read-out: BACE1 FRET assay IC50
Experimental: In Vitro Enzymatic BACE FRET (Fluorescence Resonance Energy Transfer) Assay (Enzyme Assay Data in the Example Tables I and II)
The assay buffer used in this screen is 0.05 M acetate, pH 4.2, 10% DMSO final, 100 uM genapol (which is a nonionic detergent, below its Critical Micelle Concentration). […] This assay is effectively started by the addition of FRET substrate (50 nM) and the combination is incubated for one hour. The FRET assay is terminated with by addition of Tris buffer, which raises the pH to neutrality, and the fluorescence is determined. The FRET substrate is a peptide with commercially available fluorophore and quencher, on opposite sides of the BACE cleavage site. Proteolytic cleavage of the FRET substrate releases quenching of fluorescence (excitation […] and […]).

Sequence of Beta Secretase enzyme (BACE1) (P56817 46-501): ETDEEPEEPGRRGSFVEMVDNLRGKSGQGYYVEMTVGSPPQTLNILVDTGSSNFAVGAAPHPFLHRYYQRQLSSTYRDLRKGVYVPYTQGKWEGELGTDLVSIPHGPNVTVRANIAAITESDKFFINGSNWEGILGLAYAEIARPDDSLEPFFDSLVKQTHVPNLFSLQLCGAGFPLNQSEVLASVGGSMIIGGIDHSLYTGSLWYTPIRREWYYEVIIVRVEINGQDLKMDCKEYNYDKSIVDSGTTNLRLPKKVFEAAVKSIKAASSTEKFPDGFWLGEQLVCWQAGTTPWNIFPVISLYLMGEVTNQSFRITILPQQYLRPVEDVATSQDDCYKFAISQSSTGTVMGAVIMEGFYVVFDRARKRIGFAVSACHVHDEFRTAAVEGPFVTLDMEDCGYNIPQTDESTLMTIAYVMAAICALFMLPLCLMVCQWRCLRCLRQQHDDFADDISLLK
T1 sequence (P07339 65-412, species assumed): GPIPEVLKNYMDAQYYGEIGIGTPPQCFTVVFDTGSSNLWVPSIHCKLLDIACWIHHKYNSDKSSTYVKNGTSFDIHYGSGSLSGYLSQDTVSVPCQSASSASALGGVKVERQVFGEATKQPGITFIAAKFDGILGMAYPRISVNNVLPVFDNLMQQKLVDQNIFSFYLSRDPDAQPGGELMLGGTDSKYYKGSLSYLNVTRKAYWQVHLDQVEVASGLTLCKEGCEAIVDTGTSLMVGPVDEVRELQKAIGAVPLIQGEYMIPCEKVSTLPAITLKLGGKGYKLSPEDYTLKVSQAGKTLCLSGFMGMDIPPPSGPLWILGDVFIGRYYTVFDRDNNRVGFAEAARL

COc1cnc(C(=O)Nc2ccc(F)c(C3(C(F)(F)F)CS(=O)(=O)C(C)(C)C(N)=N3)c2)cn1 (stereo in doubt) [Example 34, N-(3-((3R)-5-amino-6,6-dimethyl-1,1-dioxido-3-(trifluoromethyl)-3,6-dihydro-2H-1,4-thiazin-3-yl)-4-fluorophenyl)-5-methoxy-2-pyrazinecarboxamide]
IC50 ([1]; Aβ40, 24 h incubation): > 10 µM

COc1cnc(C(=O)Nc2ccc(F)c([C@]3(C)CS(=O)(=O)C(C)(C)C(N)=N3)c2)cn1 [Example 17, N-(3-((3R)-5-amino-3,6,6-trimethyl-1,1-dioxido-3,6-dihydro-2H-1,4-thiazin-3-yl)-4-fluorophenyl)-5-methoxy-2-pyrazinecarboxamide]
IC50 ([1]; Aβ40, 24 h incubation): 0.0022 µM
IC50 (Cathepsin D (Cat D)): > 400 µM

CC1(C)C(N)=N[C@](C)(c2cc(NC(=O)c3ccc(Cl)cn3)ccc2F)CS1(=O)=O [Example 19, N-(3-((3R)-5-amino-3,6,6-trimethyl-1,1-dioxido-3,6-dihydro-2H-1,4-thiazin-3-yl)-4-fluorophenyl)-5-chloro-2-pyridinecarboxamide]
IC50 ([1]; Aβ40, 24 h incubation): 0.0014 µM
IC50 (Cathepsin D (Cat D)): 240 µM

COc1cnc(C(=O)Nc2ccc(F)c([C@]3(C)CSCC(N)=N3)c2)cn1 [Example 43, (R)—N-(3-(5-amino-3-methyl-3,6-dihydro-2H-1,4-thiazin-3-yl)-4-fluorophenyl)-5-methoxypyrazine-2-carboxamide]
IC50 ([1]; Aβ40, 24 h incubation): 0.007 µM

COc1cnc2c(Nc3cnc(F)c([C@]4(C)CS(=O)(=O)C(C)(C)C(N)=N4)c3)nccc2c1 [Example 66, N-(5-((3R)-5-amino-3,6,6-trimethyl-1,1-dioxido-3,6-dihydro-2H-1,4-thiazin-3-yl)-6-fluoro-3-pyridinyl)-3-methoxy-1,7-naphthyridin-8-amine]
IC50 ([1]; Aβ40, 24 h incubation): 0.0067 µM

COc1cc(C)ccc1Oc1ccc(F)c([C@]2(C)CS(=O)(=O)C(C)(C)C(N)=N2)c1 [Example 97, (R)-5-amino-3-(2-fluoro-5-(2-methoxy-4-methylphenoxy)phenyl)-3,6,6-trimethyl-3,6-dihydro-2H-1,4-thiazine 1,1-dioxide]
IC50 ([1]; Aβ40, 24 h incubation): 6.86 µM
IC50 (Cathepsin D (Cat D)): 182 µM

CC1(C)C(N)=N[C@](C)(c2cc(NC(=O)c3nn(C(F)F)cc3Cl)ccc2F)CS1(=O)=O [Example 106, (R)—N-(3-(5-amino-3,6,6-trimethyl-1,1-dioxido-3,6-dihydro-2H-1,4-thiazin-3-yl)-4-fluorophenyl)-4-chloro-1-(difluoromethyl)-1H-pyrazole-3-carboxamide]
IC50 [2]: 0.00174 µM
IC50 (Cathepsin D (Cat D)): 112 µM

CC1(C)C(N)=N[C@](C)(c2cc(NCc3nn(C(F)F)cc3Cl)ccc2F)CS1(=O)=O [Example 107, (R)-5-amino-3-(5-(((4-chloro-1-(difluoromethyl)-1H-pyrazol-3-yl)methyl)amino)-2-fluorophenyl)-3,6,6-trimethyl-3,6-dihydro-2H-1,4-thiazine 1,1-dioxide]
IC50 ([2]; average IC50, enzyme assay): 0.00227 µM
IC50 (Cathepsin D (Cat D)): 81.1 µM

C[C@@]1(c2cc(Br)ccc2F)CS(=O)(=O)C2(CC(O)C2)C(N)=N1 (stereo partly drawn) [Example 112, (R)-9-amino-7-(5-bromo-2-fluorophenyl)-2-hydroxy-7-methyl-5-thia-8-azaspiro[3.5]non-8-ene 5,5-dioxide]
IC50 ([2]; average IC50, enzyme assay): 1.19 µM
IC50 (Cathepsin D (Cat D)): 37.3 µM

C[C@@]1(c2cc(Br)ccc2F)CS(=O)(=O)C2(CCC2)C(N)=N1 [Example 113, (R)-9-amino-7-(5-bromo-2-fluorophenyl)-7-methyl-5-thia-8-azaspiro[3.5]non-8-ene 5,5-dioxide]
IC50 ([2]; average IC50, enzyme assay): 4.05 µM
IC50 (Cathepsin D (Cat D)): 30 µM

CC1(C)C(N)=N[C@@]2(c3cc(Nc4nccc5cc(Cl)cnc45)ccc3F)C[C@H]2S1(=O)=O [Example 183, (1R,6R)-4-amino-6-(5-((3-chloro-1,7-naphthyridin-8-yl)amino)-2-fluorophenyl)-3,3-dimethyl-2-thia-5-azabicyclo[4.1.0]hept-4-ene 2,2-dioxide]
IC50 ([1]; average IC50, cell assay): 4.74 µM
IC50 (Cathepsin D (Cat D)): 87.9 µM

CC1(C)C(N)=NC2(c3cc(Br)ccc3F)COCC2S1(=O)=O (stereo not shown) [Example 185, 3-amino-4a-(5-bromo-2-fluorophenyl)-2,2-dimethyl-4a,5,7,7a-tetrahydro-2H-furo[3,4-b][1,4]thiazine 1,1-dioxide]
IC50 ([1]; average IC50, cell assay): > 15.6 µM

CC1(C)C(N)=N[C@@]2(c3cc(Br)ccc3F)COC[C@H]2S1(=O)=O [Example 185a, (4aS,7aS)-3-amino-4a-(5-bromo-2-fluorophenyl)-2,2-dimethyl-4a,5,7,7a-tetrahydro-2H-furo[3,4-b][1,4]thiazine 1,1-dioxide]
IC50 ([1]; average IC50, cell assay): > 15.6 µM

CC1(C)C(N)=N[C@]2(c3cc(Br)ccc3F)COC[C@@H]2S1(=O)=O [Example 185b, (4aR,7aR)-3-amino-4a-(5-bromo-2-fluorophenyl)-2,2-dimethyl-4a,5,7,7a-tetrahydro-2H-furo[3,4-b][1,4]thiazine 1,1-dioxide]
IC50 ([1]; average IC50, cell assay): > 15.6 µM

CC1(C)C(N)=N[C@@]2(c3cc(N)ccc3F)COC[C@H]2S1(=O)=O [Example 185c, (4aS,7aS)-3-amino-4a-(5-amino-2-fluorophenyl)-2,2-dimethyl-4a,5,7,7a-tetrahydro-2H-furo[3,4-b][1,4]thiazine 1,1-dioxide]
IC50 ([1]; average IC50, HEK cells): > 15.6 µM

CC1(C)C(N)=N[C@]2(c3cc(N)ccc3F)COC[C@@H]2S1(=O)=O [Example 185d, (4aR,7aR)-3-amino-4a-(5-amino-2-fluorophenyl)-2,2-dimethyl-4a,5,7,7a-tetrahydro-2H-furo[3,4-b][1,4]thiazine 1,1-dioxide]
IC50 ([1]; average IC50, HEK cells): > 15.6 µM

CC1(C)C(N)=N[C@](C)(c2cc(Nc3nccc4nc(C(F)(F)F)cnc34)ccc2F)C(F)S1(=O)=O (stereo partly drawn) [Example 227, N-(3-((3R)-5-amino-2-fluoro-3,6,6-trimethyl-1,1-dioxido-3,6-dihydro-2H-1,4-thiazin-3-yl)-4-fluorophenyl)-2-(trifluoromethyl)pyrido[3,4-b]pyrazin-5-amine]
IC50 ([2]; average IC50, enzyme assay): 0.00659 µM
IC50 (Cathepsin D (Cat D)): > 44.4 µM

CC1(C)C(N)=N[C@](C)(c2cc(Nc3ncnc4cc(Cl)cnc34)ccc2F)C(F)S1(=O)=O (stereo partly drawn) [Example 228, N-(3-((3R)-5-amino-2-fluoro-3,6,6-trimethyl-1,1-dioxido-3,6-dihydro-2H-1,4-thiazin-3-yl)-4-fluorophenyl)-7-chloropyrido[3,2-d]pyrimidin-4-amine]
IC50 ([2]; average IC50, enzyme assay): 0.00328 µM
IC50 (Cathepsin D (Cat D)): 58.9 µM

CC1(C)C(N)=N[C@](C)(c2cc(OCc3ccccc3)ccc2F)CS1(=O)=O [Example 301, (5R)-5-(5-(benzyloxy)-2-fluorophenyl)-2,2,5-trimethyl-5,6-dihydro-2H-1,4-thiazin-3-amine 1,1-dioxide]
IC50 ([1]; average IC50, HEK cell assay): 1.06 µM
IC50 (Cathepsin D (Cat D)): 184 µM

CC1(C)C(N)=N[C@](CF)(c2cc(Nc3nncc4cc(Cl)ccc34)ccc2F)CS1(=O)=O [Example 450, N-(3-((3S)-5-amino-3-(fluoromethyl)-6,6-dimethyl-1,1-dioxido-3,6-dihydro-2H-1,4-thiazin-3-yl)-4-fluorophenyl)-6-chloro-1-phthalazinamine]
IC50 ([1]; average IC50, cell assay): 0.7 µM
